From patent US11225490B2, “Prodrugs of secondary amine compounds” (Alkermes Pharma Ireland Limited, priority 2011, dated 2022)

Experiment: Pharmacokinetic evaluation of prodrugs in rats (plasma olanzapine and prodrug after intramuscular injection)
Type: in vivo, Male Sprague-Dawley rats
Settings: ([Prodrug AUClast/MWprodrug]/[OLZ AUCINF/MWOLZ])*100, IM, dose 3 mg
Experimental: Male Sprague-Dawley rats (Charles River Laboratories, Wilmington, Mass.) 25 male Sprague-Dawley rats are obtained. Approximately 24 rats are used in each study. Rats are approximately 325-350 g at time of arrival, and are housed 2 per cage with ad libitum chow and water. Environmental conditions in the housing room are 64-76° F., 30% to 70% relative humidity, and 12:12-h light:dark cycle. All experiments are approved by the Institutional Animal Care and Use Committee.
Prodrug compounds (Compound 56, Compound 111, and Compound 112) of the invention and corresponding parent drugs of the prodrugs are tested.
Rats are dosed IM by means of a 25 gauge, ⅝ in. needle with 1 cc syringe. 0.3mL suspension is withdrawn from the vial containing the test compound. The rat is injected in the muscles of the hind limb after anesthesia with isoflourane. Blood samples are collected via a lateral tail vein after brief anesthesia with Isoflurane. A 27½ G needle and lcc syringe without an anticoagulant is used for the blood collection. Approximately 250 μL of whole blood is collected at each sampling time point of 1 hour, 6 hours, 24 hours and 2, 3, 6, 7, 10, 14 days after administration. Once collected, whole blood is immediately transferred to tubes containing an esterase inhibitor and anti-coagulant, inverted 10-15 times and immediately placed on ice. The tubes are centrifuged for 2 minutes at >14,000 g's (11500 RPMs using Eppendorf Centrifuge at 2-6° C. to separate plasma. Plasma samples are transferred to labeled plain tubes and stored frozen at <−70° C. The study design is shown in Table 5 and the PK results are given in Table 6.
The Olanzapine and prodrug concentrations in plasma samples were analyzed by liquid chromatography-tandem mass spectroscopy using appropriate parameters for each compound.
Half life, maximal concentration, and AUC are calculated using WinNonlin software, version 5.2 (Pharsight, St. Louis, Mo.). (FIGS. 1-4).

Relative exposure of prodrug	Compound
Not detected	CCCCCCCCCCCCCCCC(=O)OCOC(=O)N1C(N2CCN(C)CC2)=c2cc(C)sc2=Nc2ccccc21 [Compound 56, (palmitoyloxy)methyl 2-methyl-4-(4-methylpiperazin-1-yl)-5H-benzo[b]thieno[2,3-e][1,4]diazepine-5-carboxylate]
<3%	CCCCCCCCCCCCCCCCCC(=O)OCOC(=O)N1C(N2CCN(C)CC2)=c2cc(C)sc2=Nc2ccccc21 [Compound 111, (stearoyloxy)methyl 2-methyl-4-(4-methylpiperazin-1-yl)-5H-benzo[b]thieno[2,3-e][1,4]diazepine-5-carboxylate]
12%	CCCCCCCCCCCCCCCCCCCC(=O)OCOC(=O)N1C(N2CCN(C)CC2)=c2cc(C)sc2=Nc2ccccc21 [Compound 112, (icosanoyloxy)methyl 2-methyl-4-(4-methylpiperazin-1-yl)-5H-benzo[b]thieno[2,3-e][1,4]diazepine-5-carboxylate]
